From ChEMBL document CHEMBL3885861, “Open TG-GATES”

Species on record: Rattus norvegicus
Test: Open TG-GATES - Regimen: Single
Assay type: toxicity, organism-based, Sprague-Dawley
Parameters: regimen Single, gender Male, age 6 weeks
Conditions: in vivo, po, 30 mg/kg, route gavage, dose level High; for APTT / Bas / Eos / Fbg / Hb / Ht / Lym / MCH / MCHC / MCV / Mono / Neu / PT / Plat / RBC / Ret / WBC: tissue Blood; for KIDNEY_L / KIDNEY_R / KIDNEY_TOTAL: tissue Kidney; for LIVER: tissue Liver; for A/G / ALP / ALT / AST / BUN / CRE / Ca / Cl / DBIL / GLC / IP / K / LDH / Na / PL / RALB / TBIL / TC / TG / TP / gamma-GTP: tissue Plasma

## C[C@H]1C(=O)O[C@@H]2CCN3CC=C(COC(=O)[C@](C)(O)[C@]1(C)O)[C@H]23 [MONOCROTALINE]
3 h
  TERMINAL_BW: 209.7 g
  APTT: 21.1 s
  Bas: 0%
  Eos: 1.2%
  Fbg: 305.4 mg/dL
  Hb: 13.2 g/dL
  Ht: 38.8%
  Lym: 76.4%
  MCH: 21.5 pg
  MCHC: 34%
  MCV: 63.2 fL
  Mono: 2.2%
  Neu: 19.6%
  PT: 16.2 s
  Plat: 119.2 x10_4/uL
  RBC: 615.6 x10_4/ul
  Ret: 8.9%
  WBC: 71.5 x10_2/uL
  KIDNEY_L: 0.9 g
  KIDNEY_R: 0.9 g
  KIDNEY_TOTAL: 1.8 g
  LIVER: 9.5 g
  A/G: 1.4
  ALP: 1720.6 IU/L
  ALT: 40.8 IU/L
  AST: 76.4 IU/L
  BUN: 13.2 mg/dL
  CRE: 0.2 mg/dL
  Ca: 10.4 mg/dL
  Cl: 106 meq/L
  DBIL: 0 mg/dL
  GLC: 169.4 mg/dL
  IP: 9.2 mg/dL
  K: 4.2 meq/L
  LDH: 228.2 IU/L
  Na: 142 meq/L
  PL: 127.6 mg/dL
  RALB: 3.1 g/dL
  TBIL: 0.01 mg/dL
  TC: 71.2 mg/dL
  TG: 78.8 mg/dL
  TP: 5.3 g/dL
  gamma-GTP: 1 IU/L
6 h
  TERMINAL_BW: 211.5 g
  APTT: 22.7 s
  Bas: 0%
  Eos: 1%
  Fbg: 309.8 mg/dL
  Hb: 13.7 g/dL
  Ht: 39.8%
  Lym: 78.6%
  MCH: 20.8 pg
  MCHC: 34.4%
  MCV: 60.7 fL
  Mono: 2.6%
  Neu: 17.2%
  PT: 16.2 s
  Plat: 128.2 x10_4/uL
  RBC: 657.2 x10_4/ul
  Ret: 8.4%
  WBC: 94.1 x10_2/uL
  KIDNEY_L: 0.9 g
  KIDNEY_R: 1 g
  KIDNEY_TOTAL: 1.9 g
  LIVER: 9.6 g
  A/G: 1.3
  ALP: 1398.4 IU/L
  ALT: 39.2 IU/L
  AST: 72.8 IU/L
  BUN: 11.2 mg/dL
  CRE: 0.1 mg/dL
  Ca: 10.5 mg/dL
  Cl: 106.4 meq/L
  DBIL: 0 mg/dL
  GLC: 173 mg/dL
  IP: 9.6 mg/dL
  K: 4.4 meq/L
  LDH: 273.4 IU/L
  Na: 141.8 meq/L
  PL: 137.4 mg/dL
  RALB: 3 g/dL
  TBIL: 0.018 mg/dL
  TC: 73 mg/dL
  TG: 66 mg/dL
  TP: 5.4 g/dL
  gamma-GTP: 1 IU/L
9 h
  TERMINAL_BW: 210 g
  APTT: 20.9 s
  Bas: 0%
  Eos: 0.8%
  Fbg: 301.6 mg/dL
  Hb: 13.2 g/dL
  Ht: 38.3%
  Lym: 79%
  MCH: 21.2 pg
  MCHC: 34.4%
  MCV: 61.8 fL
  Mono: 1.8%
  Neu: 18%
  PT: 16.3 s
  Plat: 122.7 x10_4/uL
  RBC: 620.2 x10_4/ul
  Ret: 9%
  WBC: 63.3 x10_2/uL
  KIDNEY_L: 1 g
  KIDNEY_R: 1 g
  KIDNEY_TOTAL: 2 g
  LIVER: 9.4 g
  A/G: 1.4
  ALP: 1227.2 IU/L
  ALT: 36.8 IU/L
  AST: 70.8 IU/L
  BUN: 9.6 mg/dL
  CRE: 0.1 mg/dL
  Ca: 10.7 mg/dL
  Cl: 105.6 meq/L
  DBIL: 0.006 mg/dL
  GLC: 178 mg/dL
  IP: 10.2 mg/dL
  K: 4.3 meq/L
  LDH: 198.2 IU/L
  Na: 142.2 meq/L
  PL: 119.4 mg/dL
  RALB: 3.1 g/dL
  TBIL: 0.022 mg/dL
  TC: 64 mg/dL
  TG: 40.8 mg/dL
  TP: 5.4 g/dL
  gamma-GTP: 1 IU/L
24 h
  TERMINAL_BW: 212.6 g
  APTT: 20.5 s
  Bas: 0%
  Eos: 0.8%
  Fbg: 302.4 mg/dL
  Hb: 13.9 g/dL
  Ht: 40.3%
  Lym: 79.4%
  MCH: 21.1 pg
  MCHC: 34.5%
  MCV: 61.3 fL
  Mono: 3%
  Neu: 16.2%
  PT: 16.1 s
  Plat: 123.3 x10_4/uL
  RBC: 658.2 x10_4/ul
  Ret: 7%
  WBC: 70.1 x10_2/uL
  KIDNEY_L: 1 g
  KIDNEY_R: 1 g
  KIDNEY_TOTAL: 1.9 g
  LIVER: 10.4 g
  A/G: 1.4
  ALP: 1607.2 IU/L
  ALT: 47.8 IU/L
  AST: 75 IU/L
  BUN: 15.8 mg/dL
  CRE: 0.2 mg/dL
  Ca: 10.5 mg/dL
  Cl: 107 meq/L
  DBIL: 0.002 mg/dL
  GLC: 172 mg/dL
  IP: 7.8 mg/dL
  K: 4.3 meq/L
  LDH: 182 IU/L
  Na: 142.2 meq/L
  PL: 182.4 mg/dL
  RALB: 3.2 g/dL
  TBIL: 0.004 mg/dL
  TC: 77 mg/dL
  TG: 108 mg/dL
  TP: 5.5 g/dL
  gamma-GTP: 1 IU/L
